Measured values from ChEMBL document CHEMBL5634193, “Discovery of CVN293, a Brain Permeable KCNK13 (THIK-1) Inhibitor Suitable for Clinical Assessment” (ACS Med Chem Lett, 2024).
Converted amounts (≈) assume the structure as drawn.

Columns and labels:
[1] = target: T1, Potassium channel subfamily K member 13 (Homo sapiens, UniProt Q9HB14); assay: Inhibition of human KCNK13 transfected in HEK293 cells; type: cell-based
T1 sequence (Q9HB14 whole entry): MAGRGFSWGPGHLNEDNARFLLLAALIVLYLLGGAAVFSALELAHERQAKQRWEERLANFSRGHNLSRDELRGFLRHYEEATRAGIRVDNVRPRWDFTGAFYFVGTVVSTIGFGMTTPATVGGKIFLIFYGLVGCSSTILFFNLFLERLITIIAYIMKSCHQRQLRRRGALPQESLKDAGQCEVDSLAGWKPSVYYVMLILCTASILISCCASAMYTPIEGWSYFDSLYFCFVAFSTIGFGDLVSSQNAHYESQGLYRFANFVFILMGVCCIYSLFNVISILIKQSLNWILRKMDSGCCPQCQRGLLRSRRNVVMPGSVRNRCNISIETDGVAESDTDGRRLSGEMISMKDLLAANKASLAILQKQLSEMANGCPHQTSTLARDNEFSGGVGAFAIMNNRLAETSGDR

[2] = Metabolic stability in human liver microsomes assessed as intrinsic clearance; type: ADME, Microsome; conditions: read-out: CLH
[3] = Metabolic stability in rat liver microsomes assessed as intrinsic clearance; type: ADME, Microsome; conditions: read-out: CLH
[4] = Metabolic stability in mouse liver microsomes assessed as intrinsic clearance; type: ADME, Microsome; conditions: read-out: CLH
[5] = Kinetic aqueous solubility of compound at pH 7.4; type: physicochemical; conditions: buffer, read-out: Kinetic_solubility
[6] = Protein binding in mouse plasma assessed as unbound fraction by equilibrium dialysis; type: ADME, cell-free
[7] = Protein binding in mouse brain assessed as unbound fraction by equilibrium dialysis; type: ADME, tissue-based
[8] = target: T2, Potassium channel subfamily K member 13 (Mus musculus, UniProt Q8R1P5); assay: Inhibition of mouse KCNK13 transfected in HEK293 cells; type: cell-based
T2 sequence (Q8R1P5 whole entry): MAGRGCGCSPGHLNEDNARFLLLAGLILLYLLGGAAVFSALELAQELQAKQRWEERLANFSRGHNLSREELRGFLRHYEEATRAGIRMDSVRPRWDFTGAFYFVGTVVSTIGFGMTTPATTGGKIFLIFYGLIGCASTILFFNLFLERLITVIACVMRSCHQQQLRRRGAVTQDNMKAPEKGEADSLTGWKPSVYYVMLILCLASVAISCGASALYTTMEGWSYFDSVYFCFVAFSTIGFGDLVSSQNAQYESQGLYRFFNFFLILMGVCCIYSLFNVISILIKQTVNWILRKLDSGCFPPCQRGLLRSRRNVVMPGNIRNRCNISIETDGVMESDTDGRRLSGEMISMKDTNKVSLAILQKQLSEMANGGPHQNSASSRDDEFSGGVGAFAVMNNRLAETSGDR

[9] = Unbound drug concentration in C57BL/6 mouse plasma at 10 mg/kg, po measured after 4 hrs by LC-MS/MS analysis; type: ADME, organism-based; conditions: in vivo
[10] = Unbound drug concentration in C57BL/6 mouse brain at 10 mg/kg, po measured after 4 hrs by LC-MS/MS analysis; type: ADME, organism-based; conditions: in vivo
[11] = Ratio of drug concentration in brain to plasma C57BL/6 mouse at 10 mg/kg, po measured after 4 hrs by LC-MS/MS analysis; type: ADME, organism-based; conditions: brain and plasma, read-out: BPR
[12] = Ratio of unbound drug concentration in brain to plasma C57BL/6 mouse at 10 mg/kg, po measured after 4 hrs by LC-MS/MS analysis; type: ADME, organism-based; conditions: brain and plasma, read-out: K(p,uu,brain)

IC50 [1] [nM] | microsomal CLint [2] [µL/min/mg] | microsomal CLint [3] [µL/min/mg] | microsomal CLint [4] [µL/min/mg] | solubility kinetic [5] [µM] | fraction unbound [6] | fraction unbound [7] | IC50 [8] [nM] | Cp(f) [9] [nM] | Cp(f) [10] [nM] | Kp at 4 h [11] | Kp uu at 4 h [12] | Structure (SMILES)
55 | 25 | 27 | 74 | < 0.3 |  |  |  |  |  |  |  | Nc1nonc1-c1nc2c(F)cccc2n1Cc1ccncc1
9200 |  |  |  |  |  |  |  |  |  |  |  | c1ccc2c(c1)nc(-c1ccn[nH]1)n2Cc1ccncc1
3430 |  |  |  |  |  |  |  |  |  |  |  | c1ccc2c(c1)nc(-c1ncc[nH]1)n2Cc1ccncc1
34 | 37 | 10 | 58 | < 0.3 |  |  |  |  |  |  |  | Nc1nonc1-c1nc2ccc(F)cc2n1Cc1ccncc1
46 | 14 | 22 | 66 | 3.7 (≈ 1.15 µg/mL) |  |  |  |  |  |  |  | Nc1nonc1-c1nc2cccc(F)c2n1Cc1ccncc1
> 22000 | 34 | 45 |  |  |  |  |  |  |  |  |  | CC(=O)Nc1nonc1-c1nc2ccccc2n1Cc1ccncc1
> 22000 |  |  |  |  |  |  |  |  |  |  |  | Nc1ncccc1-c1nc2ccccc2n1Cc1ccncc1
89 | 45 | 47 |  |  |  |  |  |  |  |  |  | Cc1nonc1-c1nc2ccccc2n1Cc1ccncc1
2940 |  |  |  |  |  |  |  |  |  |  |  | c1ccc2c(c1)nc(-c1cocn1)n2Cc1ccncc1
42 | 19 | 14 | 28 | < 0.3 |  |  |  |  |  |  |  | Nc1nonc1-c1nc2cc(F)ccc2n1Cc1ccncc1
 | 24 | 56 |  |  |  |  |  |  |  |  |  | Nc1nonc1-c1nc2ccccc2n1Cc1ccncc1

More lines, now with the values behind:

Structure (SMILES) | IC50 [1] [nM] | microsomal CLint [2] [µL/min/mg] | microsomal CLint [3] [µL/min/mg] | microsomal CLint [4] [µL/min/mg] | solubility kinetic [5] [µM] | fraction unbound [6] | fraction unbound [7] | IC50 [8] [nM] | Cp(f) [9] [nM] | Cp(f) [10] [nM] | Kp at 4 h [11] | Kp uu at 4 h [12]
Nc1nonc1-c1nc2cccc(F)c2n1Cc1ccncn1 | 46 | 10 | 77 | 30 | 9.9 (≈ 3.08 µg/mL) | 0.111 | 0.091 |  |  |  |  | 
N#Cc1ccc(Cn2c(-c3nonc3N)nc3cccc(F)c32)nn1 | 50 | 9.6 | 40 | 37 | 8.4 (≈ 2.82 µg/mL) | 0.071 | 0.064 | 35 |  |  |  | 
Nc1nonc1-c1nc2cccc(F)c2n1Cc1cncnc1 | 49 | 10 | 24 | 18 | 6.5 (≈ 2.02 µg/mL) | 0.129 | 0.057 | 26 |  |  |  | 
Nc1nonc1-c1nc2cccc(F)c2n1Cc1cnccn1 | 47 | 21 | 68 | 50 | 10 (≈ 3.11 µg/mL) | 0.138 | 0.077 | 62 | 9 | 18 | 0.56 | 2.2
Nc1nonc1-c1nc2ccc(F)c(F)c2n1Cc1cccnn1 | 50 | < 9.6 | 15.4 | < 9.6 | 3.9 (≈ 1.28 µg/mL) | 0.161 | 0.097 |  | 80 | 56 | 1.17 | 0.7
Nc1nonc1-c1nc2cccc(F)c2n1Cc1ccnnc1 | 50 | 9.6 | 31.6 | 13.9 | 10.4 (≈ 3.24 µg/mL) | 0.188 | 0.128 |  | 9 | 18 | 0.68 | 1.9
Nc1nonc1-c1nc2c(F)ccc(F)c2n1Cc1cccnn1 | 37 | 9.6 | 12.6 | 10.1 | 12.9 (≈ 4.25 µg/mL) | 0.159 | 0.13 | 42 | 793 | 630 | 0.96 | 0.8
Nc1nonc1-c1nc2cccc(F)c2n1Cc1ccc(C(F)(F)F)nn1 | 84 | 18.3 |  | 245 | 1.6 (≈ 0.607 µg/mL) | 0.035 | 0.024 | 74 |  |  |  | 
